For one assay, the target named is human DGKζ (Homo sapiens (Human), UniProt Q13574). As to the kind of experiment: biochemical. It is filed as biochemical. As to conditions: liposome (LIPGLO) assay.
Assay [1] concerns Human venous whole blood (IFN-γ). As to the kind of experiment: Human whole blood IFN-γ assay. It is filed as cell-based. On the procedure: Assay 10: Human Whole Blood IFN-γ Assay
Human venous whole blood (22.5 μL per well), obtained from healthy donors, was pre-treated with compounds for one hour at 37° C. in a humidified 95% air/5% CO2 incubator. The blood was stimulated with 2.5 μL anti-human CD3 and anti-CD28 mAb at a final concentration of 1 μg/mL each for 24 hours at 37° C. IFN-γ in the supernatants was measured using AlphLISA kit (Cat #AL217).

A further assay has as its target Human DGKα(9-727) (Homo sapiens (Human), UniProt P23743). As to the kind of experiment: biochemical. As to conditions: read-out: DGKα.
For the next assay, the target named is DGKα (Homo sapiens (Human), UniProt P23743). In words: biochemical. It is filed as biochemical. As to conditions: liposome (LIPGLO) assay; read-out: DGKα LIPGLO IC50.
The test system of assay [2] is human venous whole blood, CD8 positive population (pERK). In words: DGK human whole blood pERK assay. Type of assay: cell-based. As to conditions: read-out: DGK HWB pERK IC50. In short, it runs like this: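 Heparinized whole blood from healthy donors preincubated with compound 1 hour at 37° C. Stimulation used anti-CD3 at 1 μg/mL final plus cross-linking goat anti-mouse IgG for 15 minutes. Flow cytometry scored percentage pERK-positive cells among CD8-positive cells.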

The mark [3] stands for this setting: Homo sapiens, human whole blood IFN-γ, read-out: INFg Whole Blood.
Where [4] appears, read: Table A, liposome (LIPGLO) assay.
Where [5] appears, read: human whole blood IFN-γ, read-out: INFg Whole Blood.
Where [6] appears, read: human whole blood, CD8 positive population.
[7] abbreviates: human whole blood, anti-CD3 plus anti-CD28, 24 hours, read-out: INFg Whole Blood Normalized Agonist EC50.
Setting [8] is: Homo sapiens, 24 h, human whole blood, anti-CD3 plus anti-CD28, 24 hours, read-out: INFg Whole Blood Normalized Agonist EC50.

Where two headings read alike, the source gives them in different places.

Sequence of DGKα (P23743 whole entry, looked up): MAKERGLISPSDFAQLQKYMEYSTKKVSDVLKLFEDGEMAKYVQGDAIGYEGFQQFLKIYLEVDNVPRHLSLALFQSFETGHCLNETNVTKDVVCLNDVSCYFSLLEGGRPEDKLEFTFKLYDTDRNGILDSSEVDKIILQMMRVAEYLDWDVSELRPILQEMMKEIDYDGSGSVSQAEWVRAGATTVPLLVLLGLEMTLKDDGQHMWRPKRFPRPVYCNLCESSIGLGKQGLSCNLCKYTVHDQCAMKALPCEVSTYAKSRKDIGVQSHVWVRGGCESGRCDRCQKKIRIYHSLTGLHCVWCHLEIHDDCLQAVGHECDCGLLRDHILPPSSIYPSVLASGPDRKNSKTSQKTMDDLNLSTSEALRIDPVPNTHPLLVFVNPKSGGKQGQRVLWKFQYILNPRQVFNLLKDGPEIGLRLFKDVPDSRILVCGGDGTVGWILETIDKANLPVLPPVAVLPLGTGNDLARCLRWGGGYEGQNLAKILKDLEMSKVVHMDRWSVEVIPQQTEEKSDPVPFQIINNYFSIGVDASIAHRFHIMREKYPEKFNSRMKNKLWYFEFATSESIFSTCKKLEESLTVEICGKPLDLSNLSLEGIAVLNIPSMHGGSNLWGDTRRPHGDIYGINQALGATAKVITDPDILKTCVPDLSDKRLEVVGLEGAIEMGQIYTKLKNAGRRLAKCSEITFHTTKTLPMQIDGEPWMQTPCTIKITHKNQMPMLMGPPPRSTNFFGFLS
Sequence of Human DGKα(9-727) (P23743 whole entry, looked up): as above
Sequence of human DGKζ (Q13574 whole entry, looked up): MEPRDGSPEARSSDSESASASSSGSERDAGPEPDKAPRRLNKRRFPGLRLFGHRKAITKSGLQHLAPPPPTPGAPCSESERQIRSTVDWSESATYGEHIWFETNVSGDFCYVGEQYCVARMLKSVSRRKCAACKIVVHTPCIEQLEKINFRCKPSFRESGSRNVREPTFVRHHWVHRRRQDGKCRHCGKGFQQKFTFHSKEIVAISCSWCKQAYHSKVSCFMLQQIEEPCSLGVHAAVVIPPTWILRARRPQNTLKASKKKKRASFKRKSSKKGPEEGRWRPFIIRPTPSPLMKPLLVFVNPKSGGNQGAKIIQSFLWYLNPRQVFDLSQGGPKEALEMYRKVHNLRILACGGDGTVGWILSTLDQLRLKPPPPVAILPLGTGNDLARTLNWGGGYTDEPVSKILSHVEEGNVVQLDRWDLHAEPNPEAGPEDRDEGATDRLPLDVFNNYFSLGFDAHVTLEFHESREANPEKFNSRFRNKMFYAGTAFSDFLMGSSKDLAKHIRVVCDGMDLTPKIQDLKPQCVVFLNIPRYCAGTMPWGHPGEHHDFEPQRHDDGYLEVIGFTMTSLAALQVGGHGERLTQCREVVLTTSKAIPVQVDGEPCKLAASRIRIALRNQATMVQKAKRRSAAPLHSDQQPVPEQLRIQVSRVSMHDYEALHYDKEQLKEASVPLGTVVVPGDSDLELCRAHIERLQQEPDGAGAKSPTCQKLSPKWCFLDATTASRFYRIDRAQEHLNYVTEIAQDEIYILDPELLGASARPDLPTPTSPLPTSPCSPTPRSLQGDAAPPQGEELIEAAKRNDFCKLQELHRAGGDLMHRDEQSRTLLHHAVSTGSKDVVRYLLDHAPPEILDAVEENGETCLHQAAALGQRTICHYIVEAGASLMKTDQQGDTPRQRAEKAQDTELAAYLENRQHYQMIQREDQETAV

Regarding `Cn1c(=O)cc(N2CC[C@H](Oc3cccc(C(F)(F)F)c3)[C@@H](O)C2)c2nc(C#N)ccc21` (racemic) [Example 259, (±)-trans-8-(3-hydroxy-4-(3-(trifluoromethyl)phenoxy)piperidin-1-yl)-5-methyl-6-oxo-5,6-dihydro-1,5-naphthyridine-2-carbonitrile], the IC50 on human DGKζ (Table A, read-out: DGKζ) came to 150 µM; on Human DGKα(9-727) (setting [4]), 1.1 µM. Further, the EC50 in assay [1] (setting [3]) was 20 µM.

For the compound `Cn1c(=O)cc(N2CC[C@H](Oc3cccc(C(F)(F)F)c3)[C@@H](O)C2)c2nc(C#N)ccc21` (racemic) [Example 260, (±)-trans-8-(3-hydroxy-4-(3-(trifluoromethyl)phenoxy)piperidin-1-yl)-5-methyl-6-oxo-5,6-dihydro-1,5-naphthyridine-2-carbonitrile], the IC50 is 140 µM on human DGKζ (Table A, read-out: DGKζ) and 1.9 µM on Human DGKα(9-727).

With `Cn1c(=O)nc(N2CC[C@@H](Oc3cccc(C(F)(F)F)c3)[C@H](O)C2)c2nc(Cl)ccc21` (racemic) [Example 271, (+/−)-trans-6-chloro-4-(3-hydroxy-4-(3-(trifluoromethyl)phenoxy)piperidin-1-yl)-1-methylpyrido[3,2-d]pyrimidin-2(1H)-one], the IC50 at human DGKζ (Table A, read-out: DGKζ) turned out to be 28 µM; on Human DGKα(9-727) (setting [4]), 10 µM. In assay [1] (setting [3]), the EC50 worked out at 20 µM.

As for `Cn1c(=O)nc(N2CC[C@@H](Oc3cccc(C(F)(F)F)c3)[C@H](O)C2)c2nc(Cl)ccc21` (racemic) [Example 272, (+/−)-trans-6-chloro-4-(3-hydroxy-4-(3-(trifluoromethyl)phenoxy)piperidin-1-yl)-1-methylpyrido[3,2-d]pyrimidin-2(1H)-one], the IC50 was 24 µM on human DGKζ (Table A, read-out: DGKζ) and 19 µM at Human DGKα(9-727) (setting [4]). For the same compound, the EC50 in assay [1] (setting [5]) was determined as 16 µM.

In the case of `CCC(C)(C)c1ccc(O[C@H]2CCN(c3cc(=O)n(C)c4ccc(C#N)nc34)C[C@H]2C)cc1` (single isomer, unassigned) [Example 170], the IC50 at DGKα is 370 nM; on human DGKζ (read-out: DGKζ LIPGLO IC50), 1.1 µM; in assay [2] (setting [6]) it was 0.54 µM. Moreover, the EC50 in assay [1] (setting [7]) was 0.86 µM.

Regarding `CC(C)c1ccc(O[C@H]2CCN(c3cc(=O)n(C)c4ccc(C#N)nc34)C[C@H]2C)cc1` (single isomer, unassigned) [Example 178], the IC50 is 62 nM on DGKα, 0.53 µM on human DGKζ (read-out: DGKζ LIPGLO IC50) and 2.3 µM in assay [2] (setting [6]). Also, the EC50 in assay [1] (setting [7]) was found to be 4.6 µM.

As for `CO[C@@H]1CN(c2cc(=O)n(C)c3ccc(C#N)nc23)CC[C@H]1Oc1cccc(C(F)(F)F)c1` (single isomer, unassigned) [Example 262, (±)-trans-8-(3-methoxy-4-(3-(trifluoromethyl)phenoxy)piperidin-1-yl)-5-methyl-6-oxo-5,6-dihydro-1,5-naphthyridine-2-carbonitrile], the IC50 was found to be 15 µM at human DGKζ (Table A, read-out: DGKζ) and 3.7 µM on Human DGKα(9-727) (setting [4]).

Regarding `CC(C)Oc1ccc(O[C@H]2CCN(c3cc(=O)n(C)c4ccc(C#N)nc34)C[C@@H]2O)nc1` (single isomer, unassigned) [Example 267, (±)-trans-8-(3-hydroxy-4-((5-isopropoxypyridin-2-yl)oxy)piperidin-1-yl)-5-methyl-6-oxo-5,6-dihydro-1,5-naphthyridine-2-carbonitrile], the IC50 at human DGKζ (Table A, read-out: DGKζ) is 10 µM; on Human DGKα(9-727) (setting [4]), 0.26 µM. The EC50 in assay [1] (setting [3]) was found to be 17 µM.

Regarding `CC(C)Oc1ccc(O[C@H]2CCN(c3cc(=O)n(C)c4ccc(C#N)nc34)C[C@@H]2O)nc1` (single isomer, unassigned) [Example 268, (±)-trans-8-(3-hydroxy-4-((5-isopropoxypyridin-2-yl)oxy)piperidin-1-yl)-5-methyl-6-oxo-5,6-dihydro-1,5-naphthyridine-2-carbonitrile], the IC50 at human DGKζ (Table A, read-out: DGKζ) turned out to be 17 µM; at Human DGKα(9-727) (setting [4]), 1.3 µM.

As to `CO[C@H]1CN(c2cc(=O)n(C)c3ccc(C#N)nc23)CC[C@@H]1Oc1ccc(OC(C)C)cn1` (single isomer, unassigned) [Example 270, (±)-trans-8-(4-((5-isopropoxypyridin-2-yl)oxy)-3-methoxypiperidin-1-yl)-5-methyl-6-oxo-5,6-dihydro-1,5-naphthyridine-2-carbonitrile], the IC50 at human DGKζ (Table A, read-out: DGKζ) worked out at 12 µM; at Human DGKα(9-727) (setting [4]), 2.4 µM.

As to `Cn1c(=O)nc(N2CC[C@@H](Oc3cccc(C(F)(F)F)c3)[C@H](O)C2)c2nc(C#N)ccc21` (single isomer, unassigned) [Example 274, (+/−)-trans-4-(3-hydroxy-4-(3-(trifluoromethyl)phenoxy)piperidin-1-yl)-1-methyl-2-oxo-1,2-dihydropyrido[3,2-d]pyrimidine-6-carbonitrile], the IC50 is 15 µM on human DGKζ (Table A, read-out: DGKζ) and 14 µM on Human DGKα(9-727) (setting [4]). For the same compound, the EC50 in assay [1] (setting [3]) stood at 8.2 µM.

As for `CO[C@@H]1CN(c2nc(=O)n(C)c3ccc(C#N)nc23)CC[C@H]1Oc1cccc(C(F)(F)F)c1` (single isomer, unassigned) [Example 276], the IC50 came to 2 µM at human DGKζ (Table A, read-out: DGKζ) and 1 µM at Human DGKα(9-727) (setting [4]).

For the compound `CO[C@@H]1CN(c2nc(=O)n(C)c3ccc(C#N)nc23)CC[C@H]1Oc1cccc(C(F)(F)F)c1` (single isomer, unassigned) [Example 277], the IC50 came to 3.9 µM at human DGKζ (Table A, read-out: DGKζ) and 4.9 µM at Human DGKα(9-727) (setting [4]).

Take `COc1ccc(NC2C[C@H](C)N(c3cc(=O)n(C)c4ccc(C#N)nc34)C[C@H]2C)nc1` (single isomer, unassigned) [Example 280]: the IC50 on human DGKζ (Table A, read-out: DGKζ) was found to be 170 µM; on Human DGKα(9-727) (setting [4]) it was 0.38 µM. Also, the EC50 in assay [1] (setting [5]) is 20 µM.

Consider `CC1CN(c2cc(=O)n(C)c3ccc(C#N)nc23)CCC1N(C)C(=O)c1ccc(F)cc1` (single isomer, unassigned) [Example 287, N-(1-(6-Cyano-1-methyl-2-oxo-1,2-dihydro-1,5-naphthyridin-4-yl)-3-methylpiperidin-4-yl)-4-fluoro-N-methylbenzamide], for which the IC50 came to 7.4 µM on human DGKζ (Table A, read-out: DGKζ) and 3.2 µM at Human DGKα(9-727).

Regarding `C[C@H]1CN(c2cc(=O)n(C)c3ccc(C#N)nc23)[C@@H](C)CC1N(C)c1ccc(C(F)(F)F)cc1` (single isomer, unassigned) [Example 319], the IC50 on human DGKζ (Table A, read-out: DGKζ) amounted to 130 µM; at Human DGKα(9-727) (setting [4]), 61 µM.

Take `CC(C)Oc1ccc(OC2CCN(c3cc(=O)n(C)c4ccc(C#N)nc34)CC2)nc1` [Example 66, 8-(4-((5-isopropoxypyridin-2-yl)oxy)piperidin-1-yl)-5-methyl-6-oxo-5,6-dihydro-1,5-naphthyridine-2-carbonitrile]: the IC50 on DGKα worked out at 1200 nM; at human DGKζ (read-out: DGKζ LIPGLO IC50), 4 µM; in assay [2] (setting [6]), 2.7 µM. Further, the EC50 in assay [1] (setting [8]) is 0.82 µM.

As for `Cc1nccc(OC2CCN(c3cc(=O)n(C)c4ccc(C#N)nc34)CC2)n1` [Example 72, 5-methyl-8-(4-((2-methylpyrimidin-4-yl)oxy)piperidin-1-yl)-6-oxo-5,6-dihydro-1,5-naphthyridine-2-carbonitrile], the IC50 at DGKα was 4200 nM; on human DGKζ (read-out: DGKζ LIPGLO IC50), 39 µM; in assay [2] (setting [6]) it was 20 µM. Further, in assay [1] (setting [8]), the EC50 came to 20 µM.

As to `Cn1c(=O)cc(N2CCC(Oc3ccnc(C(F)(F)F)n3)CC2)c2nc(C#N)ccc21` [Example 76, 5-methyl-6-oxo-8-(4-((2-(trifluoromethyl)pyrimidin-4-yl)oxy)piperidin-1-yl)-5,6-dihydro-1,5-naphthyridine-2-carbonitrile], the IC50 on DGKα was found to be 11000 nM; at human DGKζ (read-out: DGKζ LIPGLO IC50), 34 µM; in assay [2] (setting [6]), 20 µM. The EC50 in assay [1] (setting [8]) is 20 µM.

Turning to `CC(C)c1ccc(O[C@@H]2CCN(c3cc(=O)n(C)c4ccc(C#N)nc34)C[C@H]2C)cc1` [Example 94, 8-((3R,4R)-4-(4-isopropylphenoxy)-3-methylpiperidin-1-yl)-5-methyl-6-oxo-5,6-dihydro-1,5-naphthyridine-2-carbonitrile], the IC50 at DGKα is 80 nM; on human DGKζ (read-out: DGKζ LIPGLO IC50) it was 6.1 µM; in assay [2] (setting [6]), 3.9 µM. In addition, the EC50 in assay [1] (setting [8]) worked out at 1.1 µM.

Consider `CC[C@@H]1CN(c2cc(=O)n(C)c3ccc(C#N)nc23)CC[C@@H]1Oc1cccc(C(C)(C)C)c1` [Example 167, 8-((3R,4S)-4-(3-(tert-butyl)phenoxy)-3-ethylpiperidin-1-yl)-5-methyl-6-oxo-5,6-dihydro-1,5-naphthyridine-2-carbonitrile], for which the IC50 on DGKα is 120 nM; at human DGKζ (read-out: DGKζ LIPGLO IC50) it was 1 µM; in assay [2] (Homo sapiens, CD8 positive), 2 µM. For the same compound, in assay [1] (read-out: INFg Whole Blood Normalized Agonist EC50, human whole blood, anti-CD3 plus anti-CD28, 24 hours), the EC50 worked out at 1.6 µM.

Take `CC[C@@H]1CN(c2cc(=O)n(C)c3ccc(C#N)nc23)CC[C@@H]1Oc1cccc(C(F)(F)F)c1` [Example 168]: the IC50 at DGKα was 1000 nM; at human DGKζ (read-out: DGKζ LIPGLO IC50), 0.89 µM; in assay [2] (setting [6]), 3.7 µM. Further, in assay [1] (setting [7]), the EC50 came to 1.6 µM.

For the compound `CC[C@@H]1CN(c2cc(=O)n(C)c3ccc(C#N)nc23)[C@@H](C)C[C@@H]1Oc1cccc(C(F)(F)F)c1` [Example 308, 8-((2S,4S,5R)-5-ethyl-2-methyl-4-(3-(trifluoromethyl)phenoxy)piperidin-1-yl)-5-methyl-6-oxo-5,6-dihydro-1,5-naphthyridine-2-carbonitrile], the IC50 on human DGKζ (Table A, read-out: DGKζ) worked out at 3.1 µM; at Human DGKα(9-727) (setting [4]), 4.3 µM.

For the origin of these results see patent US11964973B2 (priority 2019, dated 2024).
